# Molecular target: PDE4D3 (Homo sapiens, UniProt Q08499)
# Sequence (Q08499 1-673 isoform Q08499-2): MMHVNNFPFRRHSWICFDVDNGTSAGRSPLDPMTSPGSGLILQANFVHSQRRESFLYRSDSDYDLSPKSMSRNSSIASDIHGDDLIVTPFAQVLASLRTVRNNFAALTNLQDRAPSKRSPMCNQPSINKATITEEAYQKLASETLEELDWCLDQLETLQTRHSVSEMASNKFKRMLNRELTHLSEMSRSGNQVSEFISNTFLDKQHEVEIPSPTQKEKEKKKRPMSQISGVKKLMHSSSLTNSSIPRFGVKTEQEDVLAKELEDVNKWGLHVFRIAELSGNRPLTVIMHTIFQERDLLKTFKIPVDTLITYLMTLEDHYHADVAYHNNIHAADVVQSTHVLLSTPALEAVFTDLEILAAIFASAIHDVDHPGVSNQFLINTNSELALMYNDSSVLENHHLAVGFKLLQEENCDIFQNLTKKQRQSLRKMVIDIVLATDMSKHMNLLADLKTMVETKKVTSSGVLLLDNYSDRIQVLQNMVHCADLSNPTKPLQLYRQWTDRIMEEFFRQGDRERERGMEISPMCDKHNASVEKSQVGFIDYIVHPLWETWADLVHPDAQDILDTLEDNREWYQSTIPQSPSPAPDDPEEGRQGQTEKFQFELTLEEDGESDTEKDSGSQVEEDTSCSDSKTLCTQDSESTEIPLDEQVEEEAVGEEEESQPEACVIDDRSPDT
row,Compound,EC50
1,"CC(C)(O)c1ccc(Cc2cnc(OC(F)F)c(-c3cccc(Cl)c3)c2)cn1 [Example 252, 2-(5-{[5-(3-Chlorophenyl)-6-(difluoromethoxy)pyridin-3-yl]methyl}pyridin-2-yl)propan-2-ol]",100 to 1000 nM
2,"COc1ncc(Cn2cnc(CF)n2)cc1-c1cccc(OC(F)F)c1 [Example 253, 3-[3-(Difluoromethoxy)phenyl]-5-{[3-(fluoromethyl)-1H-1,2,4-triazol-1-yl]methyl}-2-methoxypyridine]",< 100 nM
3,"CCOc1ncc(Cn2cc(CF)nn2)cc1-c1cccc(OC(F)F)c1 [Example 254, 3-[3-(Difluoromethoxy)phenyl]-2-ethoxy-5-{[4-(fluoromethyl)-1H-1,2,3-triazol-1-yl]methyl}pyridine]",100 to 1000 nM
4,"CCOc1ncc(Cn2cnc(CF)n2)nc1-c1cccc(OC(F)F)c1 [Example 257, 3-[3-(Difluoromethoxy)phenyl]-2-ethoxy-5-{[3-(fluoromethyl)-1H-1,2,4-triazol-1-yl]methyl}pyrazine]",1000 to 10000 nM
5,"COc1ncc(Cn2cnc(CF)n2)nc1-c1cccc(Cl)c1 [Example 258, 3-(3-Chlorophenyl)-5-{[3-(fluoromethyl)-1H-1,2,4-triazol-1-yl]methyl}-2-methoxypyrazine]",1000 to 10000 nM
6,"CCOc1ncc(Cn2cnc(C(F)F)n2)cc1-c1cccc(OC(F)F)c1 [Example 260, 3-[3-(Difluoromethoxy)phenyl]-5-{[3-(difluoromethyl)-1H-1,2,4-triazol-1-yl]methyl}-2-ethoxypyridine]",< 100 nM
7,"CCOc1ncc(Cn2cc(CO)nn2)cc1-c1cccc(OC(F)F)c1 [Example 263, [1-({5-[3-(Difluoromethoxy)phenyl]-6-ethoxypyridin-3-yl}methyl)-1H-1,2,3-triazol-4-yl]methanol]",< 100 nM
8,"CCOc1ncc(Cn2cc(CO)nn2)nc1-c1cccc(OC(F)F)c1 [Example 265, [1-({6-[3-(Difluoromethoxy)phenyl]-5-ethoxypyrazin-2-yl}methyl)-1H-1,2,3-triazol-4-yl]methanol]",100 to 1000 nM
9,"COc1ncc(Cn2cc(CO)nn2)nc1-c1cccc(Cl)c1 [Example 266, (1-{[6-(3-Chlorophenyl)-5-methoxypyrazin-2-yl]methyl}-1H-1,2,3-triazol-4-yl)methanol]",100 to 1000 nM
10,"CCOc1ncc(Cn2cc(CO)nn2)nc1-c1cccc(Cl)c1 [Example 268, (1-{[6-(3-Chlorophenyl)-5-ethoxypyrazin-2-yl]methyl}-1H-1,2,3-triazol-4-yl)methanol]",100 to 1000 nM
11,"CCOc1ncc(Cn2cc(C(F)F)nn2)cc1-c1cccc(OC(F)F)c1 [Example 269, 3-[3-(Difluoromethoxy)phenyl]-5-{[4-(difluoromethyl)-1H-1,2,3-triazol-1-yl]methyl}-2-ethoxypyridine]",100 to 1000 nM
12,"OCc1cncn1Cc1cnc(OC(F)F)c(-c2cccc(Cl)c2)c1 [Example 273, (1-{[5-(3-Chlorophenyl)-6-(difluoromethoxy)pyridin-3-yl]methyl}-1H-imidazol-5-yl)methanol]",1000 to 10000 nM
13,"OCc1cn(Cc2cnc(OC(F)F)c(-c3cccc(Cl)c3)c2)cn1 [Example 274, (1-{[5-(3-Chlorophenyl)-6-(difluoromethoxy)pyridin-3-yl]methyl}-1H-imidazol-4-yl)methanol]",< 100 nM
14,"COc1ncc(Cn2ccc(CO)n2)cc1-c1cccc(OC(F)F)c1 [Example 275, [1-({5-[3-(Difluoromethoxy)phenyl]-6-methoxypyridin-3-yl}methyl)-1H-pyrazol-3-yl]methanol]",< 100 nM
15,"CCOc1ncc(Cn2cc(CO)cn2)cc1-c1cccc(Cl)c1 [Example 276, (1-{[5-(3-Chlorophenyl)-6-ethoxypyridin-3-yl]methyl}-1H-pyrazol-4-yl)methanol]",< 100 nM
16,"CCOc1ncc(Cn2cc(Cl)c(CO)n2)cc1-c1cccc(Cl)c1 [Example 277, (4-Chloro-1-{[5-(3-chlorophenyl)-6-ethoxypyridin-3-yl]methyl}-1H-pyrazol-3-yl)methanol]",100 to 1000 nM
17,"CCOc1ncc(Cn2ncc(Cl)c2CO)cc1-c1cccc(Cl)c1 [Example 278, (4-Chloro-1-{[5-(3-chlorophenyl)-6-ethoxypyridin-3-yl]methyl}-1H-pyrazol-5-yl)methanol]",100 to 1000 nM
18,"O=C(O)c1ccc(Cc2cnc(OC(F)F)c(-c3cccc(Cl)c3)c2)cc1 [Example 280, 4-{[5-(3-Chlorophenyl)-6-(difluoromethoxy)pyridin-3-yl]methyl}benzoic acid]",1000 to 10000 nM

# Further lines, results first:
row,EC50,Compound
1,100 to 1000 nM,"CCOc1cccc(-c2cc(Cn3cnc(CF)n3)cnc2OC(F)F)c1 [Example 255, 2-(Difluoromethoxy)-3-(3-ethoxyphenyl)-5-{[3-(fluoromethyl)-1H-1,2,4-triazol-1-yl]methyl}pyridine]"
2,< 100 nM,"COc1ncc(Cn2cnc(CF)n2)cc1-c1ccnc(OC(F)F)c1 [Example 256, 3-[2-(Difluoromethoxy)pyridin-4-yl]-5-{[3-(fluoromethyl)-1H-1,2,4-triazol-1-yl]methyl}-2-methoxypyridine]"
3,100 to 1000 nM,"FC(F)Oc1ncc(Cn2cnc(C(F)F)n2)cc1-c1cccc(Cl)c1 [Example 259, 3-(3-Chlorophenyl)-2-(difluoromethoxy)-5-{[3-(difluoromethyl)-1H-1,2,4-triazol-1-yl]methyl}pyridine]"
4,< 100 nM,"COc1ncc(Cn2cnc(C(F)F)n2)cc1-c1ccnc(OC(F)F)c1 [Example 261, 3-[2-(Difluoromethoxy)pyridin-4-yl]-5-{[3-(difluoromethyl)-1H-1,2,4-triazol-1-yl]methyl}-2-methoxypyridine]"
5,< 100 nM,"COc1ncc(Cn2ccnn2)cc1-c1cccc(Cl)c1 [Example 262, 3-(3-Chlorophenyl)-2-methoxy-5-(1H-1,2,3-triazol-1-ylmethyl)pyridine]"
6,< 100 nM,"CCOc1cccc(-c2cc(Cn3cc(CO)nn3)cnc2OC(F)F)c1 [Example 264, (1-((6-(Difluoromethoxy)-5-(3-ethoxyphenyl)pyridin-3-yl)methyl)-1H-1,2,3-triazol-4-yl)methanol]"
7,100 to 1000 nM,"COc1ncc(Cn2cc(CO)nn2)nc1-c1cccc(OC(F)F)c1 [Example 267, [1-({6-[3-(Difluoromethoxy)phenyl]-5-methoxypyrazin-2-yl}methyl)-1H-1,2,3-triazol-4-yl]methanol]"
8,> 10000 nM,"COc1ncc(Cn2cc(C(=O)O)cn2)cc1-c1cccc(Cl)c1 [Example 270, 1-{[5-(3-Chlorophenyl)-6-methoxypyridin-3-yl]methyl}-1H-pyrazole-4-carboxylic acid]"
9,100 to 1000 nM,"COc1ncc(Cn2cc(C(N)=O)cn2)cc1-c1cccc(Cl)c1 [Example 271, 1-{[5-(3-Chlorophenyl)-6-methoxypyridin-3-yl]methyl}-1H-pyrazole-4-carboxamide]"
10,< 100 nM,"COc1ncc(Cn2cc(CO)cn2)cc1-c1cccc(OC(F)F)c1 [Example 272, [1-({5-[3-(Difluoromethoxy)phenyl]-6-methoxypyridin-3-yl}methyl)-1H-pyrazol-4-yl]methanol]"

# — US9120770B2, “Substituted pyridine and pyrazine compounds as PDE4 inhibitors” (DART NEUROSCIENCE (CAYMAN) LTD., priority 2013, dated 2015)
